Values quoted from earlier work in patent US7972633B2, “Nutritional supplements for healthy memory and mental function” (Applied Cognitive Sciences, LLC, priority 2007, dated 2011).

What was measured:
[1] = system: healthy adults who have no evidence of cerebral dysfunction; conditions: two days' supplementation with 10, 20 or 40 mg daily, compared to placebo
[2] = system: patients with mild to moderate transient or permanent impairment of cognitive performance; conditions: 10 or 20 mg three times a day for 16 weeks, compared to placebo

CCOC(=O)C1=C[C@]2(CC)CCCN3CCc4c(n1c1ccccc41)[C@@H]32 [vinpocetine, Vinpocetine]
ability to distinguish discrete sensory data, reaction time, short-term memory functions [1]: significantly greater extent than placebo | concentration, memory and severity of illness [2]: significant improvements in concentration, memory, and reduced severity of illness
